# Patent publication US20090023646A1, “GHRH analogues” (Centre Hospitalier de L'Universite de Montreal (CHUM), priority 2002, published 2009)
# Square brackets hold non-standard residues; d marks the D form. Peptide text beside a SMILES is read from it.
# System: male Beagle dog
# Experiment: In vivo GH secretion after escalating SC injections in a male Beagle dog
# Details: AUC not measured
# Description: The ability of human GHRH analogue #5 (human [D-Ala^2, D-Tyr^10, D-Ala^15, Lys^22] GHRH (1-29)NH2 analogue) to stimulate GH secretion was studied in adult female rats (26-34 weeks at onset of treatment) and in a male Beagle dog.
# Human GHRH analogue #5, in 0.9% sodium chloride for injection USP, was administered on days 3, 5 and 8 at dose levels of 0.01, 0.1, and 1 mg/kg body weight, respectively by subcutaneous (SC) injection to an approximately 8-month old male dog as shown in Table 3. On Day 1, the dog received the control (vehicle) article and on Day 11, the animal received the positive control, hGHRH (1-44)NH2 at a dose level of 0.01 mg/kg. Prior to administration, all dosing formulations were filtered using a 0.22 μm filter to ensure sterility. The actual amount of GHRH analogue #5 administered was calculated and adjusted based on the animal's most recent body weight. Dosing started at approximately the same time each day, commencing at 9:00 am±30 minutes. […]
# Plasma GH was determined by Linco Diagnostic Services using their own kit. Linco's Porcine/Canine Growth Hormone radioimmunoassay kit (RIA) (PGH-46HK) has been developed to quantitate Growth Hormone in plasma, serum, and tissue culture media. […]
smiles,measurement,value
"CC[C@H](C)[C@H](NC(=O)[C@H](C)NC(=O)[C@H](CC(=O)O)NC(=O)[C@@H](C)NC(=O)[C@@H](N)Cc1ccc(O)cc1)C(=O)N[C@@H](Cc1ccccc1)C(=O)N[C@H](C(=O)N[C@@H](CC(N)=O)C(=O)N[C@@H](CO)C(=O)N[C@H](Cc1ccc(O)cc1)C(=O)N[C@@H](CCCNC(=N)N)C(=O)N[C@@H](CCCCN)C(=O)N[C@H](C(=O)N[C@@H](CC(C)C)C(=O)N[C@H](C)C(=O)N[C@@H](CCC(N)=O)C(=O)N[C@@H](CC(C)C)C(=O)N[C@@H](CO)C(=O)N[C@@H](C)C(=O)N[C@@H](CCCNC(=N)N)C(=O)N[C@@H](CCCCN)C(=O)N[C@@H](CCCCN)C(=O)N[C@@H](CC(C)C)C(=O)N[C@@H](CCC(N)=O)C(=O)N[C@@H](CC(=O)O)C(=O)N[C@H](C(=O)N[C@@H](CCSC)C(=O)N[C@@H](CO)C(=O)N[C@@H](CCCNC(=N)N)C(N)=O)[C@@H](C)CC)C(C)C)[C@@H](C)O [GHRH analogue #5, [D-Ala^2, D-Tyr^10, D-Ala^15, Lys^22] hGHRH(1-29)-NH2] (H-Y[dA]DAIFTNS[dY]RKVL[dA]QLSARKKLQDIMSR-NH2)",GH response compared with response to natural hGHRH(1-44)NH2,significantly larger
